From article PMC8482815, “Targeting Host Glycolysis as a Strategy for Antimalarial Development” (Frontiers in Cellular and Infection Microbiology, 2021)
Several values for one entry are separate records, joined by “and”; a condition that tells them apart may be missing. Equal values may be shown once.

Tested on: human erythrocytes
Experiment: Untargeted metabolomics and 13C-glucose tracing of enolase inhibitor treated erythrocytes
Type: cell-based
Settings: 0h
Description: Freshly collected erythrocytes were washed, resuspended to 10% hematocrit in buffer [25mM HEPES (pH 7.4), 120mM NaCl, 5.4mM KCl, 1.8mM CaCl2, and 1mM NaH2PO4], incubated for 1 hour at 37°C, then centrifuged at 2000xg for 5 minutes at 4°C, resuspended in fresh wash buffer to 30-40% hematocrit, and split into 210µL aliquots of packed erythrocytes. […] All samples were incubated at 37°C shaking at 500 RPM. Triplicate samples of supernatants and packed erythrocytes were collected at 0, 0.5, 1, and 6-hour intervals and snap-frozen in liquid N2.
RBC and media samples were extracted at 1:10 and 1:20 dilutions, respectively, in 5:3:2 MeOH : MeCN:H2O v/v/v, and supernatants analyzed on a Thermo Vanquish UHPLC coupled to a Thermo Q Exactive mass spectrometer, as extensively described ([Nemkov et al., 2015]; [Nemkov et al., 2017]). The extraction buffer was supplemented with 40uM 3-^13C lactate to allow absolute quantification of lactate isotopologues, including lactate generated via glycolysis ([1,2,3-^13C3] enriched) vs. the pentose phosphate pathway ([2,3-^13C2] enriched), as described ([Reisz et al., 2016]). Metabolite assignments, peak area integration and isotopologues distributions were determined using Maven (Princeton University) ([Nemkov et al., 2015]; [Nemkov et al., 2017]).
Data were auto-scaled and normalized to zero-hour time points. Metabolites were removed from the dataset if greater than 50% of the samples contained missing values or the relative standard deviation among replicates exceeded 25%. Additionally, data was filtered using the interquartile range to reduce near-constant values from the experiment by 5%.
A principal component analysis of preprocessed data was plotted with the 95% confidence interval minimum volume enclosing ellipsoid for each respective group (MetaboAnalyst, cluster, plotly). A two-way repeated measures analysis of variance (ANOVA) was performed with multiple comparisons corrected for using a false discovery rate p-value cutoff of 0.05. Metabolite-Pathway analysis was performed using the R package of MetaboAnalyst, as previously described ([Xia and Wishart, 2010]). Metabolite-Protein nodal analysis was performed using omicsnet.ca and as previously described ([Zhou and Xia, 2018]).

[1] = treated erythrocytes, one value per replicate sample, polarity +
[2] = treated erythrocytes, one value per replicate sample, polarity -
[3] = treated erythrocytes, replicate samples

CC(C)(C)C(=O)OCOP(=O)(OCOC(=O)C(C)(C)C)C1CCCN(O)C1=O (stereo not shown) [POMHEX]
AMP level (metabolomics signal) (replicate samples): 2.43E+06 and 4.08E+06 and 2.38E+06 | ATP level (metabolomics signal) (replicate samples): 7.62E+03 and 7.58E+03 and 9.00E+03 | Adenine level (metabolomics signal) (replicate samples): 1.31E+05 and 1.38E+05 and 1.32E+05 | Cytosine level (metabolomics signal) (replicate samples): 8.55E+04 and 2.38E+05 and 4.74E+05 | L-alanine level (metabolomics signal) (replicate samples): 7.28E+06 and 6.97E+06 and 9.28E+06 | L-arginine level (metabolomics signal) (replicate samples): 7.34E+06 and 1.51E+07 and 4.28E+06 | L-asparagine level (metabolomics signal) (replicate samples): 3.07E+06 and 3.14E+06 and 2.95E+06 | L-aspartate level (metabolomics signal) (replicate samples): 3.52E+07 and 3.22E+07 and 3.54E+07 | L-cysteine level (metabolomics signal) (replicate samples): 4.11E+05 and 4.42E+05 and 1.93E+05 | L-glutamate level (metabolomics signal) (replicate samples): 3.91E+07 and 3.64E+07 and 4.16E+07 | L-glutamine level (metabolomics signal) (replicate samples): 3.51E+07 and 3.65E+07 and 2.77E+07 | L-histidine level (metabolomics signal) (replicate samples): 1.77E+06 and 1.86E+06 and 1.64E+06 | L-isoleucine level (metabolomics signal) (replicate samples): 0.00E+00 and 2.79E+07 and 2.01E+07 | L-leucine level (metabolomics signal) (replicate samples): 1.13E+08 and 1.29E+08 and 1.02E+08 | L-lysine level (metabolomics signal) (replicate samples): 3.76E+06 and 3.91E+06 and 3.34E+06 | L-methionine level (metabolomics signal) (replicate samples): 1.20E+07 and 1.28E+07 and 9.77E+06 | L-phenylalanine level (metabolomics signal) (replicate samples): 3.89E+06 and 5.35E+06 and 4.43E+06 | L-proline level (metabolomics signal) (replicate samples): 3.87E+07 and 4.04E+07 and 2.78E+07 | L-serine level (metabolomics signal) (replicate samples): 2.27E+06 and 2.30E+06 and 2.07E+06 | L-threonine level (metabolomics signal) (replicate samples): 3.34E+06 and 3.50E+06 and 3.23E+06 | L-tryptophan level (metabolomics signal) (replicate samples): 4.61E+06 and 3.92E+06 and 4.51E+06 | L-tyrosine level (metabolomics signal) (replicate samples): 1.31E+07 and 1.44E+07 and 1.06E+07 | L-valine level (metabolomics signal) (replicate samples): 1.25E+08 and 1.20E+08 and 1.19E+08 | dCMP level (metabolomics signal) (replicate samples): 2.66E+04 and 2.57E+04 and 1.91E+04 | dTMP level (metabolomics signal) (replicate samples): 1.47E+06 and 1.26E+06 and 9.65E+05 | glycine level (metabolomics signal) (replicate samples): 1.29E+06 and 1.21E+06 and 1.30E+06 | N-Acyl-D-aspartate (C06380) metabolite signal [1]: 2.82E+05 and 3.24E+05 and 2.89E+05 | Poly-gamma-D-glutamate (C05723) metabolite signal [1]: 2.28E+07 and 2.38E+07 and 1.86E+07 | D-Ribitol 5-phosphate (C01068) metabolite signal [2]: 1.18E+04 and 2.78E+04 and 2.55E+04 | D-glucono-1,5-lactone (C00198) metabolite signal [2]: 7.35E+05 and 6.39E+05 and 6.34E+05 | L-Noradrenaline (C00547) metabolite signal [2]: 2.10E+05 and 2.67E+05 and 1.54E+05 | Oxalosuccinate (C05379) metabolite signal [2]: 1.80E+05 and 1.89E+05 and 1.75E+05 | Pyridoxamine (C00534) metabolite signal [2]: 3.47E+04 and 2.11E+04 and 4.13E+04 | Thioredoxin disulfide (C00343) metabolite signal [2]: 8.56E+04 and 8.74E+04 and 6.44E+04 | 1-4-beta-D-Xylan (metabolite signal) [3]: 2.75E+05 and 3.19E+05 and 2.60E+05 | 2-Hydroxyglutarate/Citramalate (C02630) metabolite signal [3]: 1.87E+05 and 1.44E+05 and 1.36E+05 | 5-6-Dihydrothymine (C00906) metabolite signal [3]: 3.37E+05 and 3.23E+05 and 2.70E+05 | 5-10-Methenyltetrahydrofolate (metabolite signal) [3]: 3.52E+05 and 3.49E+05 and 3.48E+05 | 5-Hydroxyisourate (C11821) metabolite signal [3]: 4.58E+06 and 4.14E+06 and 5.16E+06 | 5-L-Glutamyl-taurine (metabolite signal) [3]: 1.13E+05 and 1.05E+05 and 1.57E+05 | 5-Oxoproline (metabolite signal) [3]: 1.19E+06 and 1.09E+06 and 9.91E+05 | (S)(+)-Allantoin (C02350) metabolite signal [3]: 4.00E+04 and 4.50E+04 and 4.43E+04 | Allantoate (C00499) metabolite signal [3]: 3.63E+05 and 4.40E+05 and 2.26E+05 | Ascorbate (metabolite signal) [3]: 1.03E+05 and 1.39E+05 and 1.05E+05 | CMP-N-acetylneuraminate (metabolite signal) [3]: 3.22E+04 and 2.63E+04 and 3.17E+04 | Carnosine (metabolite signal) [3]: 2.22E+05 and 1.73E+05 and 2.52E+05 | Citrate (C00158) metabolite signal [3]: 2.73E+04 and 3.19E+04 and 2.59E+04 | Creatine (metabolite signal) [3]: 2.64E+08 and 2.63E+08 and 2.96E+08 | Creatinine (metabolite signal) [3]: 3.90E+06 and 3.59E+06 and 3.78E+06 | Cys-Gly (metabolite signal) [3]: 1.91E+06 and 2.03E+06 and 2.13E+06 | D-Glucosamine (metabolite signal) [3]: 6.56E+04 and 1.26E+05 and 1.11E+05 | D-Glucose (C00031) metabolite signal [3]: 7.03E+06 and 7.96E+06 and 6.07E+06 | D-Ribose (C00121) metabolite signal [3]: 2.42E+05 and 2.08E+05 and 2.00E+05 | Dehydroascorbate (metabolite signal) [3]: 6.66E+03 and 1.26E+04 and 9.16E+03 | Dihydrofolate (metabolite signal) [3]: 2.17E+06 and 2.08E+06 and 1.28E+06 | Dimethylglycine (metabolite signal) [3]: 1.13E+06 and 1.12E+06 and 1.22E+06 | Diphosphate (C00013) metabolite signal [3]: 2.29E+03 and 2.81E+03 and 1.30E+03 | Fumarate (C00122) metabolite signal [3]: 1.70E+05 and 1.53E+05 and 1.29E+05 | Glutathione (C00051) metabolite signal [3]: 1.29E+08 and 1.42E+08 and 1.45E+08 | Glutathione disulfide (metabolite signal) [3]: 4.07E+05 and 2.99E+05 and 3.44E+05 | Hypoxanthine (C00262) metabolite signal [3]: 1.23E+05 and 8.50E+04 and 1.07E+05 | IMP (C00130) metabolite signal [3]: 2.07E+04 and 4.13E+04 and 2.42E+04 | Inosine (C00294) metabolite signal [3]: 1.23E+05 and 1.19E+05 and 1.09E+05 | L-Citrulline (metabolite signal) [3]: 2.18E+06 and 2.13E+06 and 2.77E+06 | L-Homoserine (metabolite signal) [3]: 1.85E+05 and 2.19E+05 and 1.31E+05 | Lactate (C01432) metabolite signal [3]: 7.44E+06 and 7.84E+06 and 7.12E+06 | Malate (C00149) metabolite signal [3]: 4.07E+05 and 3.13E+05 and 3.03E+05 | Mannitol (C00392) metabolite signal [3]: 1.01E+05 and 1.11E+05 and 1.22E+05 | N-Acetylneuraminate (metabolite signal) [3]: 3.05E+04 and 3.27E+04 and 2.27E+04 | N-Glycoloyl-neuraminate (metabolite signal) [3]: 2.02E+05 and 2.52E+05 and 1.61E+05 | NAD+ (C00003) metabolite signal [3]: 3.20E+05 and 3.25E+05 and 4.11E+05 | Nicotinamide (C00153) metabolite signal [3]: 2.56E+07 and 2.61E+07 and 2.89E+07 | Ornithine (metabolite signal) [3]: 2.51E+06 and 2.56E+06 and 2.47E+06 | Oxaloacetate (C00036) metabolite signal [3]: 4.82E+04 and 5.32E+04 and 4.35E+04 | Phosphoserine (metabolite signal) [3]: 1.31E+05 and 1.59E+05 and 1.52E+05 | Putrescine (metabolite signal) [3]: 5.04E+04 and 6.26E+04 and 7.87E+04 | Pyridoxal (C00250) metabolite signal [3]: 5.06E+04 and 4.81E+04 and 5.68E+04 | Pyruvate (C00022) metabolite signal [3]: 8.21E+05 and 7.91E+05 and 7.06E+05 | S-Glutathionyl-L-cysteine (metabolite signal) [3]: 1.68E+05 and 1.57E+05 and 8.75E+04 | Sedoheptulose 1-phosphate (C06222) metabolite signal [3]: 4.53E+04 and 4.14E+04 and 2.92E+04 | Spermidine (metabolite signal) [3]: 9.43E+06 and 1.01E+07 and 9.63E+06 | Spermine (metabolite signal) [3]: 8.86E+06 and 9.58E+06 and 9.08E+06 | Succinate (C00042) metabolite signal [3]: 1.10E+05 and 1.06E+05 and 1.08E+05 | Thymidine (C00214) metabolite signal [3]: 1.93E+04 and 1.39E+04 and 1.28E+04 | UDP (C00015) metabolite signal [3]: 3.47E+05 and 4.31E+05 and 2.43E+05 | UDP-N-acetyl-D-glucosamine (metabolite signal) [3]: 2.77E+04 and 2.13E+04 (2×) | UDP-glucose (C00029) metabolite signal [3]: 8.05E+04 and 6.15E+04 and 6.31E+04 | Urate (C00366) metabolite signal [3]: 4.79E+04 and 4.62E+04 and 3.28E+04 | Xanthine (C00385) metabolite signal [3]: 3.87E+05 and 3.78E+05 and 3.91E+05 | alpha-D-Glucosamine 1-phosphate (metabolite signal) [3]: 1.72E+06 and 1.66E+06 and 2.32E+06 | alpha-D-Ribose 1-phosphate (C00620) metabolite signal [3]: 1.60E+05 and 1.43E+05 and 1.11E+05 | gamma-Glutamyl-gamma-aminobutyrate (metabolite signal) [3]: 8.08E+04 and 5.90E+04 and 1.10E+05 | gamma-L-Glutamyl-D-alanine (metabolite signal) [3]: 2.48E+04 and 2.19E+04 and 1.85E+04 | gamma-L-Glutamyl-L-cysteine (metabolite signal) [3]: 2.81E+04 and 3.64E+04 and 2.51E+04
